Laboratory results reported in BindingDB's records for doi:10.1074/jbc.M113.479303 (Wageningen University, 2013).

Assays:
Assay in all cases: Substrate Binding Assay
Conditions in all cases: pH 8
[1] = molecular target: Probable salicylate monooxygenase [Y105F] (Rhodococcus jostii (strain RHA1), UniProt Q0SFK6, Y105F)
Procedure: (§1) The interaction of 3HB6H (25 uM) with substrate analogs was studied in 50 mM Tris-SO4 (pH 8.0). Dissociation constants (Kd) of enzyme-substrate complexes were determined from flavin absorption difference spectra essentially as described elsewhere [Montersino et al., Biochim. Biophys. Acta, 1824:433-442].

[2] = molecular target: Probable salicylate monooxygenase [H213A] (Rhodococcus jostii (strain RHA1), UniProt Q0SFK6, H213A)
Procedure: as §1

[3] = molecular target: T1, Probable salicylate monooxygenase (Rhodococcus jostii (strain RHA1), UniProt Q0SFK6)
T1 sequence (Q0SFK6 whole entry): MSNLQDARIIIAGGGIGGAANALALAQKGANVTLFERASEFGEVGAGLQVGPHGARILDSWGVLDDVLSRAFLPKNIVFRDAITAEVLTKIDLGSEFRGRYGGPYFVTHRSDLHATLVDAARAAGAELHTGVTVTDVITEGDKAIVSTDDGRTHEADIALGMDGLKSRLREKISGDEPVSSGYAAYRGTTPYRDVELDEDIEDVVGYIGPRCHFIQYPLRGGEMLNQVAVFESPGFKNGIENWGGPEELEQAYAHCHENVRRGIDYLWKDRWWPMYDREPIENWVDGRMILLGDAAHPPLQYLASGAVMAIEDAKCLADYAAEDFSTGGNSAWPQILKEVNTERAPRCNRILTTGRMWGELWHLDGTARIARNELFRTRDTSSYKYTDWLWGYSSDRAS
Procedure: as §1

Structure (SMILES): O=C(O)c1cccc(O)c1
- Kd [1]: 644 µM
- Kd [2]: 61 µM
- Kd [3]: 48 µM
